Laboratory results from PMC10518717, “High-Throughput Screening and Proteomic Characterization of Compounds Targeting Myeloid-Derived Suppressor Cells” (Molecular & Cellular Proteomics : MCP, 2023).

Assays:
[1] = target: T1, Acyp1 (Mus musculus, UniProt P56376); assay: Solvent-induced protein precipitation profiling; assay type: binding; conditions: 7.8 μM and 26 μM; relative to compound 3 at 10 μM
T1 construct: We treated NUP-MDSC cell lysate with compound 2; endogenous in cells; host or cells: mouse NUP-MDSC (lysate)
T1 sequence (P56376 1-99): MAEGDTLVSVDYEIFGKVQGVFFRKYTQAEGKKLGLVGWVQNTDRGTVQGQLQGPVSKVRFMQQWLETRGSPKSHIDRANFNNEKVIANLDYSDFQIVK
Experimental: (§1) NUP-MDSCs were differentiated as described above, washed twice with PBS, resuspended in lysis buffer (PBS, 0.4% IGEPAL CA-630, 1× Halt Protease-Inhibitor Cocktail (Thermo Fisher Scientific)), and subjected to three freeze-thaw cycles. The lysate was cleared by centrifugation for 30 min at 18,000g and 4 °C. The soluble fraction was diluted to 4 mg/ml and allowed to warm up to room temperature. Equal volumes of lysate were treated in triplicates with 100 x compound stock solutions (in DMSO) or DMSO for 15 min at room temperature (final concentrations: cmpd 2: 7.8 μM (3xEC50) and 26 μM (10xEC50), cmpd 3: 10 μM and 26 μM). […]
(§2) Peptides were analyzed via LC-MS/MS on a Vanquish Neo UHPLC coupled to an Orbitrap Eclipse Tribrid mass spectrometer (Thermo Fisher Scientific). […] Samples were measured, employing a MS3 method with real-time search. […] To obtain quantitative information on TMT reporter ions, each peptide precursor was fragmented again as for MS2 analysis followed by synchronous selection of the up to 10 most intense peptide fragments in the iontrap ([37]) and further fragmentation via HCD using an NCE of 55%. […] The MS3 scan was recorded in the OT at 30,000 resolution (scan range 110–500 m/z, isolation window of 0.7 m/z, AGC of 2e4 charges, maxIT of 120 ms). […]

[2] = target: T2, Cd74 (Mus musculus, UniProt P04441); assay: Solvent-induced protein precipitation profiling; assay type: binding; conditions: 7.8 μM and 26 μM; relative to compound 3 at 10 μM
T2 construct: We treated NUP-MDSC cell lysate with compound 2; endogenous in cells; host or cells: mouse NUP-MDSC (lysate)
T2 sequence (P04441 1-279): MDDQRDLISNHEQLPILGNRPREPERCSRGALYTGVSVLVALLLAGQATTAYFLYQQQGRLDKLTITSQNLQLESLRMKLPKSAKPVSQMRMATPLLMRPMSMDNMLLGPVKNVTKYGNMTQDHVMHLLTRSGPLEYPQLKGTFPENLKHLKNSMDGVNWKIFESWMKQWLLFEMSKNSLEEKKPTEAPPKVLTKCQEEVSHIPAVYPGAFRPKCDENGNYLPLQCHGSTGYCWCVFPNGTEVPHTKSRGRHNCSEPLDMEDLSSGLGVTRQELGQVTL
Experimental: as §1, §2

[3] = test system: A594 cells; assay: CellROX-based detection of ROS levels; assay type: cell-based; conditions: 48 h treatment (compound 2 7.8 μM, N-acetyl-cysteine 300 μM), then 200 μM tert-butyl hydroperoxide 2 h; compared to compound 3 10 μM
Experimental: A594 cells were maintained in Fluorobrite DMEM (Thermo Fisher Scientific) supplemented with GlutaMAX (Thermo Fisher Scientific) and 10% fetal bovine serum (PAN Biotech). Cells were seeded onto a 24-well microplate (Ibidi) and treated with DMSO, 7.8 μM compound 2 (3x EC50), 10 μM compound 3, or 300 μM N-acetyl-cysteine for 48 h. After the treatment, cells were incubated with 200 μM tert-butyl hydroperoxide (Sigma) for 2 h to stimulate ROS production. Then, cells were stained with CellROX deep red (Thermo Fisher Scientific) following the manufacturer’s guidelines. CellROX deep red signal was measured on a Leica DMI 6000 B epifluorescent microscope with a Cy5 filter set. Mean signal intensity per cell was determined from >100 cells per condition from three independent treatments.
For the CellROX assay, three independent treatments were conducted. From each, the mean signal intensity per cell was determined for >100 cells per condition. The statistical significance was calculated by one-way ANOVA followed by a post hoc Tukey’s multiple comparisons test using GraphPad Prism (v.8.3.0).

CCOC(=O)c1nnn(-c2nn3nnnc3c3ccccc23)c1C [compound 2]
stabilization against solvent-induced aggregation of Acyp1 [1]: dose-dependent stabilization
stabilization against solvent-induced aggregation of Cd74 [2]: dose-dependent stabilization
CellROX Deep Red fluorescence (amount of ROS in a cell) [3]: decreased significantly
